Reference: patent US9913858B2, “Prevention and treatment of toxicosis” (priority 2013, dated 2018)

Experiments:
sheep = details: 120 mg/kg bromide
Protocol: KBr solution was administered via an orogastric tube, then flushed with 500 mL water. Blood samples were collected at 0, 1, 2, 3, 4, 6, 8, 10, 12, 24 h, then at 12 h intervals to 240 h, then at 24 h intervals to 336 h. A final sample was taken at 504 h. When collecting blood samples at 1 h through to 10 h the rumen was auscultated, over the caudo-dorsal blind sack, to determine if the high salt load affected rumen motility.

[1] = system: lolitrem B toxicosis (Rye Grass Staggers); assay: Clinical and neurological signs in sheep fed lolitrem B-containing toxic feed with or without potassium bromide; type: in vivo; details: sheep, Group 5: prophylactic oral KBr only
Protocol: Animals were exposed to a controlled diet containing 0.16 mg/kg body weight (BW) lolitrem B toxin rising to 0.27 mg/kg BW after 21 days exposure to toxic feed. Toxin was delivered as perennial rye grass seed (GA66 AR98, Grasslanz Technology Ltd, NZ) containing very high levels of lolitrem B toxin (11 ppm DM) as a component of the animal's feed intake.
On entry to the trial, all animals receiving toxic feed were exposed to a diet containing experimental ryegrass seed with a final lolitrem B concentration of 0.08 mg/kg LW, lucerne chaff and molasses 30% w/v for 3 days. After this induction period, the toxin content of the feed was increased to 0.16 mg/kg LW for the duration of the trial. […] Ryegrass seed constituted up to 65% of available Feed on Offer (FOO) by dry weight contributing a metabolisable energy of 12.1 Mj/kg DM.
At entry to the trial, all animals were subjected to a full clinical examination. Live weight was recorded. Venous blood and urine samples were collected for laboratory. Animals were also subjected to gait analysis, neurological examination including proprioceptive testing, cranial nerve examination and papillary light and menace reflexes. Electromyography (EMG) of tricep and neck muscles was performed. Gait analysis (see below) was repeated at three day intervals until onset of significant clinical signs and/or gait abnormality at which point animals were subjected to gait analysis daily. Gait analysis was recorded on video each occasion.
General clinical signs were also noted on a daily basis; these included observations of nervousness or agitation, changes in normal placement of body, limb or head position changes in faecal consistency, feeding behaviour or water consumption, observeable tremor of the body or head, eye position (strabismus) and movement (nystagmus), locomotory disturbances, or any other clinical changes worthy of note. Feed and water intake was monitored daily for the duration of the trial. Heart rate, respiration rate at rest and rectal temperature were also monitored daily.
Prophylactic sheep received a split loading dose of 300 mg/kg on day 1, 120 mg/kg (100 mg LD+20 mg/kg daily maintenance dose) on day 2, 120 mg/kg on day 3 and 20 mg/kg daily for the duration of the trial. An acute treatment dose of 300 mg/kg LW was used for the trial. Both prophylactic and acute treatment doses were envisaged to give serum concentrations of 750 to 1000 μg/ml for the duration of the initial weeks of the trial.
Group 1—Negative Control: lucerne chaff only;
Group 2—Positive Control: lucerne chaff containing 0.16 mg/kg LW lolitrem B;
Prophylactic treatment sheep (Groups 4 & 5) received a split loading dose of 300 mg/kg on day 1 of the trial, 120 mg/kg (100 mg LD 20 mg/kg daily maintenance dose) on day 2, 120 mg/kg on day 3 and 20 mg/kg daily thereafter. Acute therapy sheep were dosed with a single dose of 300 mg/kg on day of falling.
End of the trial was defined for Groups 2 and 3 as date of falling. Group 1 animals entered the end of trial protocol with their Group 2 counterparts. Group 4 and 5 animals entered the end of trial protocol after 22 days. This end of trial protocol consisted of the following analysis: • On Day 1: animals were subjected to a full clinical examination, gait analysis, urine and blood collection, neurological examination and EMG. • On Day 2: further gait analysis was recorded, • On Day 3: animals were again subjected to full clinical examination, gait analysis, urine and blood collection, neurological examination and EMG as well as live weight recorded prior to necropsy.

[2] = system: lolitrem B toxicosis (Rye Grass Staggers); assay: Gait analysis and time to falling; type: in vivo, sheep
Protocol: Gait analysis was performed on entry to the trial and at designated time points throughout the trial as described above. To achieve this, animals were moved from their individual pens to an external yard in their cohort groups (five animals, one from each treatment). Animals were then encouraged to move at a run, initially in a group and then individually, for a minimum of three minutes per animal whilst their movement was captured on video and gait observations recorded.
Once all animals had been analysed the whole cohort was returned to their individual pens. Gait abnormalities such as stumbling, falling or disorientation were noted, including observation of Type 1 or Type 2 gait changes as described in Combs et, al., (2014). Type I movement disorder is defined as an impaired alternating movement (dysdiadochokinesia), bunny-hopping gait and failure to maintain an appropriate direction. Type 2 movement disorder is defined by increasing rigidity of limbs on forced movement resulting finally in tonic fore and hind limb extension with the animal collapsing into sternal or lateral recumbency (Combs, Rendell et at 2014). Scores between those denoted above were considered as a gradation between the stated clinical observations. Analysis of gait was performed using the following scale in Table 2 and a composite score noted for each animal for each day during the end of trial protocol. A total score out of 30 was determined for each animal. The higher the score the greater the locomotory disturbance. Time to falling was determined post trial by analysis of video material,
Animals that met the entry criteria (severe Type 2 gait abnormality and falling) were submitted to the end-of-trial protocol. […] Animals were subjected to the following tests on days 1 and 3: gait analysis, full neurological examination, venous blood and urine sampling and EMG. Only gait analysis was performed on day 2.

[3] = Serum and cerebrospinal fluid bromide concentrations in the sheep trial; type: in vivo; details: sheep, sheep
Protocol: Venous blood samples collected for biochemical analysis and haematocrit (PCV), and urine for USG, at three specific time points during the experiment for all animals: 1) on entry to the trial; 2) on date of entry to the end of trial protocol and, 3) on day of necropsy.
A full clinical examination was performed prior to euthanasia. At euthanasia, 100 I.U. heparin (Provet Riverina Pty Ltd) was injected into the jugular vein, followed shortly by Lethabarb (20 mL/40 kg LW). Immediately after euthanasia, the ventral articulation of C1 was exposed and cerebrospinal fluid (CSF) collected using a 23 g needle. The head was then removed and subjected to perfusion fixation. Briefly, the carotid arteries were exposed and a small catheter inserted and ligated to secure the perfusion lines. Two liters of 0.1% phosphate buffered saline (PBS) containing 3000 I.U of heparin/L was then slowly perfused via the ligated vessels at a pressure of 90 mm Hg using a Microgon peristaltic Pump (Microgon, Laguna Hills, Calif.). Once complete this was replaced with 4% paraformaldehyde (Sigma-Alrich) in 0.1% PBS and a further two liters allowed to perfuse slowly through the tissues of the head. Once complete, catheters were removed and the whole head placed at 4° C. overnight to complete fixation. Twenty-four hours post perfusion fixation the brain was removed from the skull and placed in 10% formal saline for storage until dissection for processing to wax sections.
Absorbance was measured with a spectrophotometer at 440 nm. […] The lower limit of quantification (LOQ) was 25 μg/mL.

In the case of Br [bromide], the adverse reactions (sheep; either treatment group (IV, PO)) was “No adverse reactions were noted”, the “tranquilising effect, subjective observation” value (sheep; IV group) was “mild tranquilising effect” and the neurological effects (sheep; PO group) was “no discernable neurological effects”. The rumen motility (sheep; PO group) was “no observed alteration”, the “animals showing evidence of mild anxiolysis” value [1] was 519 and the “Altered stance, number of animals affected” value ([1]; no toxic feed, 22 days) was 4. The “Fine tremor, number of animals affected” value ([1]; no toxic feed, 22 days) was “one”, the time to falling ([2]; printed as Group 2 Day 2, 24 hours after single oral dose of bromide 300 mg/kg LW) was 145.66 ± 22.07 s and the time to falling ([2]; printed as Group 2 Day 3, 48 hours after single oral dose of bromide 300 mg/kg LW) was 124.75 ± 22.06 s. It also gave a time to falling ([2]; printed as Group 2 day 1, intoxicated sheep before single oral dose of bromide 300 mg/kg LW) of 52.44 s, a Kp at 48 hours ([3]; cerebrospinal fluid and serum, oral, 300 mg/kg, mean ratio of serum bromide:CSF bromide, Group 3, acute bromide treatment plus lolitrem B, 48 hours) of 0.81 and a Kp at 22 days ([3]; cerebrospinal fluid and serum, oral, mean ratio of serum bromide:CSF bromide, Group 4, bromide prophylactic treatment plus lolitrem B) of 0.91. The Kp at 22 days ([3]; cerebrospinal fluid and serum, oral, mean ratio of serum bromide:CSF bromide, Group 5, bromide prophylactic controls) was 0.74 and the “serum bromide, factor Group 4 over Group 5” value ([3]; prophylactic bromide plus lolitrem B versus prophylactic bromide alone, 22 days) was 1.27.
